Data taken from ChEMBL document CHEMBL3124792, “Discovery and preclinical characterization of the cyclopropylindolobenzazepine BMS-791325, a potent allosteric inhibitor of the hepatitis C virus NS5B polymerase” (J Med Chem, 2014).
Values after ≈ are worked out from the molar mass of the structure shown.

Legend:
[1] = Cytotoxicity against human HuH7 cells by Alamar blue assay; assay type: cell-based; settings: Huh-7 cells
[2] = target: RNA-directed RNA polymerase (Hepacivirus hominis, UniProt O39930, P495A); assay: Inhibition of HCV Con1 genotype 1b NS5B RNA dependent RNA polymerase P495A mutant-mediated incorporation of radiolabeled nucleotides by scintillation proximity assay; set-up: species or system Hepatitis C virus (isolate Con1)
RNA-directed RNA polymerase, sequence (O39930 entry or part of it P495A): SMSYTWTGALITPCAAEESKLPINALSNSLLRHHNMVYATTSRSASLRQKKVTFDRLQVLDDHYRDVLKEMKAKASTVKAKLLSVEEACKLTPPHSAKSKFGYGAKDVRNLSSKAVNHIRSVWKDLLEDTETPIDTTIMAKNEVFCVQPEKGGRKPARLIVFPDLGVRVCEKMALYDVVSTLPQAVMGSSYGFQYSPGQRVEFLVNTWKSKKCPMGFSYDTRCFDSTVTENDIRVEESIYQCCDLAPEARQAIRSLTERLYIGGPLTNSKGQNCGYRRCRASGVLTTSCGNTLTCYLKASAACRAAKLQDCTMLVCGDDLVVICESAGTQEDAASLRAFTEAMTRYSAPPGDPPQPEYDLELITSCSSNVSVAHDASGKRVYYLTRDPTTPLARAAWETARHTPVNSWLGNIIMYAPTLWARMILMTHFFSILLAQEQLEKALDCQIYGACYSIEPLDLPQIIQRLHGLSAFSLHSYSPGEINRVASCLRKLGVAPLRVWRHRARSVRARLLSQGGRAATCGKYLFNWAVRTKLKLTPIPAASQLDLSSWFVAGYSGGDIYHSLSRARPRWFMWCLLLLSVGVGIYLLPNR

[3] = Inhibition of HCV Con1 genotype 1b recombinant wild-type NS5B polymerase-mediated incorporation of radiolabeled nucleotides by scintillation proximity assay; set-up: species or system Hepatitis C virus (isolate Con1)
[4] = system: Hepatitis C virus; assay: Antiviral activity against Hepatitis C virus H77c genotype 1a infected in human HuH7 cells after 3 days by FRET assay; assay type: functional, organism-based, Hepacivirus hominis; settings: genotype 1a H77, Huh-7, 72 h
[5] = system: Hepatitis C virus; assay: Antiviral activity against Hepatitis C virus Con1 genotype 1b infected in human HuH7 cells after 3 days by FRET assay; assay type: functional, organism-based, Hepacivirus hominis; settings: isolate Con1, Huh-7, 72 h
[6] = target: T1, Nuclear receptor subfamily 1 group I member 2 (Homo sapiens, UniProt O75469); assay: Transactivation of human PXR expressed in human HepG2 cells by luciferase reporter gene assay; assay type: cell-based
T1 sequence (O75469 whole entry): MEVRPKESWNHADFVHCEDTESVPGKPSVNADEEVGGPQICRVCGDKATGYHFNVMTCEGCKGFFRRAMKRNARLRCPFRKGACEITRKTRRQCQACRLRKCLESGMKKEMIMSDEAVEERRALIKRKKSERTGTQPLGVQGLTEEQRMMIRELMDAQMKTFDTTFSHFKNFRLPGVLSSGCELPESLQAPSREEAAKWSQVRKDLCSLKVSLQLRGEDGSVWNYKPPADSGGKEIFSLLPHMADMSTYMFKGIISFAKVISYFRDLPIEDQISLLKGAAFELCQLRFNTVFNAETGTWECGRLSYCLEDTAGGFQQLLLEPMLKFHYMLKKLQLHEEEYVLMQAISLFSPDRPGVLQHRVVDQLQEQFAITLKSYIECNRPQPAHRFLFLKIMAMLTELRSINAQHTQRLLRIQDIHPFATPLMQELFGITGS

[7] = system: Liver microsome; settings: rat, microsomes
[8] = system: Hepatitis C virus; assay: Antiviral activity against Hepatitis C virus Con1 genotype 1b infected in human HuH7 cells after 3 days by FRET assay in presence of 40% human serum; assay type: functional, organism-based, Hepacivirus hominis; settings: isolate Con1, Huh-7, 72 h
[9] = system: Liver microsome; settings: human, microsomes
[10] = Permeability of the compound at pH 7.4 by PAMPA; assay type: physicochemical; settings: read-out: permeability
[11] = Solubility of the compound in amorphous form in phosphate buffer at pH 6.5; assay type: physicochemical
[12] = target: T2, PXR (NR1I2) (Homo sapiens, UniProt O75469); assay: Transactivation of human PXR expressed in human HepG2 cells by luciferase reporter gene assay relative to control; assay type: cell-based; settings: HepG2 cells expressing human PXR, read-out: %max
T2 sequence (O75469 whole entry): T1 sequence (O75469 whole entry)

Structure (SMILES) | CC50 [1] | EC50 [2] | IC50 [3] | EC50 [4] | EC50 [5] | EC50 [6] | Stability [7] | EC50 [8] | Stability [9] | Papp [10] | solubility [11] | Emax [12] | EC20 ([6]; human, hepg2)
O=C(O)c1ccc2c(C3CCCCC3)c3n(c2c1)CC(C(=O)N1CCOCC1)=Cc1ccccc1-3 | > 10000 nM | 3400 nM | 106 nM | 404 nM | 359 nM | – | – | – | – | – | – | – | –
CN(C)S(=O)(=O)NC(=O)c1ccc2c(C3CCCCC3)c3n(c2c1)CC(C(=O)N1CCOCC1)=Cc1ccccc1-3 | > 10000 nM | 1100 nM | 52 nM | 119 nM | 148 nM | – | – | – | – | – | – | – | –
COc1ccc2c(c1)C=C(C(=O)N1CCOCC1)Cn1c-2c(C2CCCCC2)c2ccc(C(=O)NS(=O)(=O)N(C)C)cc21 | > 10000 nM | 239 nM | 49 nM | 61 nM | 62 nM | – | – | – | – | – | – | – | –
COc1ccc2c(c1)C1CC1(C(=O)N1CCN(C(C)=O)CC1)Cn1c-2c(C2CCCCC2)c2ccc(C(=O)NS(=O)(=O)N(C)C)cc21 (racemic) | > 10000 nM | – | – | 45 nM | 98 nM | > 50000 nM | 100% | 89 nM | 93% | 34 ×10⁻⁶ cm/s | 18 µg/mL (≈ 27.2 µM) | – | –
COc1ccc2c(c1)C1CC1(C(=O)N1CCN(C(=O)N(C)C)CC1)Cn1c-2c(C2CCCCC2)c2ccc(C(=O)NS(=O)(=O)N(C)C)cc21 (racemic) | > 10000 nM | – | – | 23 nM | 54 nM | > 50000 nM | 93% | 59 nM | 64% | 43 ×10⁻⁶ cm/s | 18 µg/mL (≈ 26.1 µM) | – | –
COc1ccc2c(c1)C1CC1(C(=O)N1C3CC1CN(C)C3)Cn1c-2c(C2CCCCC2)c2ccc(C(=O)NS(=O)(=O)N(C)C)cc21 (racemic) | 10000 nM | – | – | 4 nM | 12 nM | > 50000 nM | 100% | 39 nM | 100% | – | – | – | –
COc1ccc2c(c1)C1CC1(C(=O)N1C3CCC1CNC3)Cn1c-2c(C2CCCCC2)c2ccc(C(=O)NS(=O)(=O)N(C)C)cc21 (racemic) | > 10000 nM | – | – | 14 nM | 32 nM | 9000 nM | 100% | – | 96% | 4 ×10⁻⁶ cm/s | – | 31% | –
COc1ccc2c(c1)C1CC1(C(=O)N1CC3CCC(C1)N3)Cn1c-2c(C2CCCCC2)c2ccc(C(=O)NS(=O)(=O)N(C)C)cc21 (racemic) | > 10000 nM | – | – | 34 nM | 89 nM | > 50000 nM | 100% | – | 100% | 0.2 ×10⁻⁶ cm/s | – | – | –
COc1ccc2c(c1)C1CC1(C(=O)N1C3CCC1CN(C)C3)Cn1c-2c(C2CCCCC2)c2ccc(C(=O)NS(=O)(=O)N(C)C)cc21 (racemic) | > 10000 nM | – | – | 5 nM | 13 nM | – | 100% | 45 nM | 90% | 77 ×10⁻⁶ cm/s | 44 µg/mL (≈ 66.7 µM) | 21% | –
COc1ccc2c(c1)C1CC1(C(=O)N1CC3CCC(C1)N3C)Cn1c-2c(C2CCCCC2)c2ccc(C(=O)NS(=O)(=O)N(C)C)cc21 (racemic) | > 16000 nM | – | – | 16 nM | 39 nM | 3000 nM | 100% | 153 nM | 100% | 21 ×10⁻⁶ cm/s | 41 µg/mL (≈ 62.1 µM) | 29% | –
CCN1CC2CCC(C1)N2C(=O)C12CC1c1cc(OC)ccc1-c1c(C3CCCCC3)c3ccc(C(=O)NS(=O)(=O)N(C)C)cc3n1C2 (racemic) | > 10000 nM | – | – | 4 nM | 22 nM | > 50000 nM | 98% | 37 nM | 98% | 41 ×10⁻⁶ cm/s | – | – | –
COc1ccc2c(c1)C1CC1(C(=O)N1C[C@@H](C)O[C@@H](C)C1)Cn1c-2c(C2CCCCC2)c2ccc(C(=O)NS(=O)(=O)N(C)C)cc21 (mixture of isomers) | 9000 nM | – | – | 12 nM | 24 nM | – | – | 98 nM | – | – | – | – | 2800 nM
COc1ccc2c(c1)C1CC1(C(=O)N1CC3CCC(C1)O3)Cn1c-2c(C2CCCCC2)c2ccc(C(=O)NS(=O)(=O)N(C)C)cc21 (racemic) | > 10000 nM | – | – | 7 nM | 31 nM | 600 nM | – | 114 nM | – | – | – | 144% | –
COc1ccc2c(c1)C1CC1(C(=O)N1CC(O)(C(F)(F)F)C1)Cn1c-2c(C2CCCCC2)c2ccc(C(=O)NS(=O)(=O)N(C)C)cc21 (racemic) | > 10000 nM | – | – | 15 nM | 50 nM | > 3000 nM | 100% | 115 nM | 100% | 47 ×10⁻⁶ cm/s | – | 32% | –
COc1ccc2c(c1)C1CC1(C(=O)N1CC(O)(C(C)C)C1)Cn1c-2c(C2CCCCC2)c2ccc(C(=O)NS(=O)(=O)N(C)C)cc21 (racemic) | 6500 nM | – | – | < 14 nM | 23 nM | > 50000 nM | 100% | 65 nM | 72% | 74 ×10⁻⁶ cm/s | – | 14% | –
COc1ccc2c(c1)C1CC1(C(=O)N1CC(O)(C3CC3)C1)Cn1c-2c(C2CCCCC2)c2ccc(C(=O)NS(=O)(=O)N(C)C)cc21 (racemic) | > 10000 nM | – | – | < 14 nM | 29 nM | > 50000 nM | 100% | 68 nM | 100% | 19 ×10⁻⁶ cm/s | – | 12% | –
COc1ccc2c(c1)C1CC1(C(=O)N1CC(O)(c3ccccc3)C1)Cn1c-2c(C2CCCCC2)c2ccc(C(=O)NS(=O)(=O)N(C)C)cc21 (racemic) | 8000 nM | – | – | 68 nM | 160 nM | > 50000 nM | 100% | – | 72% | 39 ×10⁻⁶ cm/s | – | 10% | –
COc1ccc2c(c1)C1CC1(C(=O)N1CC(O)(c3ccc(F)cc3)C1)Cn1c-2c(C2CCCCC2)c2ccc(C(=O)NS(=O)(=O)N(C)C)cc21 (racemic) | 7000 nM | – | – | 54 nM | 220 nM | > 50000 nM | 100% | – | 87% | – | – | 3% | –
COc1ccc2c(c1)C1CC1(C(=O)N1C[C@@H](C)N[C@@H](C)C1)Cn1c-2c(C2CCCCC2)c2ccc(C(=O)NS(=O)(=O)N(C)C)cc21 (mixture of isomers) | 15000 nM | – | – | 21 nM | 29 nM | > 50000 nM | 100% | 55 nM | 91% | 14 ×10⁻⁶ cm/s | < 1 µg/mL | – | –
